Measured values from patent US8012956B2, “Tropane compounds” (Exelixis, Inc., priority 2007, dated 2011).

These molecules were tested against HSP90 (Homo sapiens, UniProt P07900) (assay: HSP90 inhibition (HSP90 IC50)).
Format: biochemical

**Q.** For `COc1cccc(C(=O)NC2CC3CCC(C2)N3c2ccc(C(=O)NCC3CCNC3)cn2)c1C` (centres unmarked), which IC50 is on record?
**A.** < 500 nM

**Q.** With `COc1cccc(C(=O)N[C@H]2C[C@H]3CC[C@@H](C2)N3c2ccc(C(=O)NCc3ccc(N4CCN(C)CC4)cc3)cn2)c1C` as the molecule, how does the IC50 read?
**A.** < 500 nM

**Q.** Which IC50 does the source give for `COc1ccc([C@H](C)NC(=O)c2ccc(N3C4CCC3CC(NC(=O)c3cccc(OC)c3C)C4)nc2)cc1` (some centres unmarked) here?
**A.** < 500 nM

**Q.** `COc1cccc(C(=O)NC2CC3CCC(C2)N3c2ccc(C(=O)NC(C)c3ccccc3)cn2)c1C` (centres unmarked) was tested. Which IC50 did it give?
**A.** < 500 nM

**Q.** For `COc1ccc(Nc2cc(C(=O)N[C@H]3C[C@H]4CC[C@@H](C3)N4c3ccc(C(=O)NC4CCCC4)cn3)ccc2C(N)=O)cc1OCCN(C)C`, which IC50 is on record?
**A.** < 500 nM

**Q.** How did the IC50 turn out when `C[C@H](NC(=O)c1ccc(N2C3CCC2CC(NC(=O)c2ccc(C(N)=O)c(Nc4ccncc4)c2)C3)nc1)c1ccc(N2CCN(C)CC2)cc1` (some centres unmarked) was run?
**A.** < 500 nM

**Q.** With `COC(=O)[C@@H](NC(=O)c1ccc(N2C3CCC2CC(NC(=O)c2cccc(OC)c2C)C3)nc1)c1ccc(OC)cc1` (some centres unmarked) as the molecule, how does the IC50 read?
**A.** 1000 to 2000 nM

**Q.** How did the IC50 turn out when `CC(C)C(=O)c1ccc(N2[C@@H]3CC[C@H]2C[C@@H](NC(=O)c2ccc(C(N)=O)c(NCC4CC4)c2)C3)nc1` was run?
**A.** 1000 to 2000 nM

**Q.** With `CCC(CC)Nc1cc(C(=O)N[C@H]2C[C@H]3CC[C@@H](C2)N3c2ccc(C(C)=O)cn2)c(C)cc1C(N)=O` as the molecule, how does the IC50 read?
**A.** < 500 nM

**Q.** How did the IC50 turn out when `NC(=O)c1ccc(C(=O)N[C@H]2C[C@H]3CC[C@@H](C2)N3c2ccc(C(=O)C3CC3)cn2)cc1NC1CCCC1` was run?
**A.** < 500 nM

**Q.** How did the IC50 turn out when `CCC(C)Oc1cc(C(=O)N[C@H]2C[C@H]3CC[C@@H](C2)N3c2ccc(C(=O)C3CC3)cn2)c(C)cc1C(N)=O` (some centres unmarked) was run?
**A.** < 500 nM

**Q.** With “2-((cyclopropylmethyl)amino]-N4-{8- [5-({[(3R)-1-(1-methylethyl)pyrrolidin- 3-yl]amino}carbonyl)pyridin-2-yl]-8- azabicyclo[3.2.1]oct-3-endo- yl}benzene-1,4-dicarboxamide” as the molecule, how does the IC50 read?
**A.** < 500 nM

**Q.** For `NC(=O)c1cc(Cl)c(C(=O)N[C@H]2C[C@H]3CC[C@@H](C2)N3c2ccc(C(=O)NCc3ccccc3)cn2)cc1Cl` [2,5-dichloro-N-[8-(5-{[(phenylmethyl)amino]carbonyl}pyridin-2-yl)-8-azabicyclo[3.2.1]oct-3-endo-yl]benzene-1,4-dicarboxamide], which IC50 is on record?
**A.** < 500 nM

**Q.** Which IC50 does the source give for `Cc1cc(C(=O)NC2CC3CCC(C2)N3c2ccc(C(=O)N[C@@H](C)c3ccc(N4CCN(C)CC4)cc3)cn2)c(C)cc1C(N)=O` (stereo partly drawn) [2,5-dimethyl-N-(8-{5-[({(1S)-1-[4-(4-methylpiperazin-1-yl)phenyl]ethyl}amino)carbonyl]pyridin-2-yl}-8-azabicyclo[3.2.1]oct-3-endo-yl)benzene-1,4-dicarboxamide] here?
**A.** < 500 nM

**Q.** `Cc1cc(C(=O)N[C@H]2C[C@H]3CC[C@@H](C2)N3c2ccc(C(=O)NC3CN(C)C3)cn2)c(C)cc1C(N)=O` [2,5-dimethyl-N-[8-(5-{[(1-methylazetidin-3-yl)amino]carbonyl}pyridin-2-yl)-8-azabicyclo[3.2.1]oct-3-endo-yl]benzene-1,4-dicarboxamide] was tested. Which IC50 did it give?
**A.** < 500 nM

**Q.** `Cc1cc(C(=O)N[C@H]2C[C@H]3CC[C@@H](C2)N3c2ccc(C(=O)NC3CCN(C)CC3)cn2)c(C)cc1C(N)=O` [2,5-dimethyl-N-[8-(5-{[(1-methylpiperidin-4-yl)amino]carbonyl}pyridin-2-yl)-8-azabicyclo[3.2.1]oct-3-endo-yl]benzene-1,4-dicarboxamide] was tested. Which IC50 did it give?
**A.** 500 to 999 nM

**Q.** `Cc1cc(C(=O)N[C@H]2C[C@H]3CC[C@@H](C2)N3c2ccc(C(=O)NCc3ccccc3)cn2)c(C)cc1C(N)=O` [2,5-dimethyl-N-[8-(5-{[(phenylmethyl)amino]carbonyl}pyridin-2-yl)-8-azabicyclo[3.2.1]oct-3-endo-yl]benzene-1,4-dicarboxamide] was tested. Which IC50 did it give?
**A.** < 500 nM

**Q.** How did the IC50 turn out when `Cc1cc(C(=O)N[C@H]2C[C@H]3CC[C@@H](C2)N3c2ccc(C(=O)NC3CN(C(C)C)C3)cn2)c(C)cc1C(N)=O` [2,5-dimethyl-N-{8-[5-({[1-(1-methylethyl)azetidin-3-yl]amino}carbonyl)pyridin-2-yl]-8-azabicyclo[3.2.1]oct-3-endo-yl}benzene-1,4-dicarboxamide] was run?
**A.** < 500 nM

**Q.** `Cc1cc(C(=O)NC2CC3CCC(C2)N3c2ccc(C(=O)N[C@@H]3CCCN(C(C)C)C3)cn2)c(C)cc1C(N)=O` (stereo partly drawn) [2,5-dimethyl-N-{8-[5-({[(3R)-1-(1-methylethyl)piperidin-3-yl]amino}carbonyl)pyridin-2-yl]-8-azabicyclo[3.2.1]oct-3-endo-yl}benzene-1,4-dicarboxamide] was tested. Which IC50 did it give?
**A.** < 500 nM

**Q.** How did the IC50 turn out when `Cc1cc(C(=O)N[C@H]2C[C@H]3CC[C@@H](C2)N3c2ccc(C(=O)N[C@@H]3CCN(C(C)C)C3)cn2)c(C)cc1C(N)=O` [2,5-dimethyl-N-{8-[5-({[(3R)-1-(1-methylethyl)pyrrolidin-3-yl]amino}carbonyl)pyridin-2-yl]-8-azabicyclo[3.2.1]oct-3-endo-yl}benzene-1,4-dicarboxamide] was run?
**A.** < 500 nM

**Q.** For `Cc1cc(C(=O)NC2CC3CCC(C2)N3c2ccc(C(=O)N[C@@H]3CCCN(C)C3)cn2)c(C)cc1C(N)=O` (stereo partly drawn) [2,5-dimethyl-N-{8-[5-({[(3R)-1-methylpiperidin-3-yl]amino}carbonyl)pyridin-2-yl]-8-azabicyclo[3.2.1]oct-3-endo-yl}benzene-1,4-dicarboxamide], which IC50 is on record?
**A.** < 500 nM

**Q.** Which IC50 does the source give for `Cc1cc(C(=O)NC2CC3CCC(C2)N3c2ccc(C(=O)N[C@@H]3CCN(C)C3)cn2)c(C)cc1C(N)=O` (stereo partly drawn) [2,5-dimethyl-N-{8-[5-({[(3R)-1-methylpyrrolidin-3-yl]amino}carbonyl)pyridin-2-yl]-8-azabicyclo[3.2.1]oct-3-endo-yl}benzene-1,4-dicarboxamide] here?
**A.** 500 to 999 nM

**Q.** For `Cc1cc(C(=O)NC2CC3CCC(C2)N3c2ccc(C(=O)N[C@H]3CCCN(C(C)C)C3)cn2)c(C)cc1C(N)=O` (stereo partly drawn) [2,5-dimethyl-N-{8-[5-({[(3S)-1-(1-methylethyl)piperidin-3-yl]amino}carbonyl)pyridin-2-yl]-8-azabacyclo[3.2.1]oct-3-endo-yl}benzene-1,4-dicarboxamide], which IC50 is on record?
**A.** 500 to 999 nM

**Q.** With `Cc1cc(C(=O)N[C@H]2C[C@H]3CC[C@@H](C2)N3c2ccc(C(=O)N[C@H]3CCN(C(C)C)C3)cn2)c(C)cc1C(N)=O` [2,5-dimethyl-N-{8-[5-({[(3S)-1-(1-methylethyl)pyrrolidin-3-yl]amino}carbonyl)pyridin-2-yl]-8-azabicyclo[3.2.1]oct-3-endo-yl}benzene-1,4-dicarboxamide] as the molecule, how does the IC50 read?
**A.** < 500 nM

**Q.** How did the IC50 turn out when `Cc1cc(C(=O)NC2CC3CCC(C2)N3c2ccc(C(=O)N[C@H]3CCCN(C)C3)cn2)c(C)cc1C(N)=O` (stereo partly drawn) [2,5-dimethyl-N-{8-[5-({[(3S)-1-methylpiperidin-3-yl]amino}carbonyl)pyridin-2-yl]-8-azabicyclo[3.2.1]oct-3-endo-yl}benzene-1,4-dicarboxamide] was run?
**A.** < 500 nM

**Q.** Which IC50 does the source give for `Cc1cc(C(=O)NC2CC3CCC(C2)N3c2ccc(C(=O)N[C@H]3CCN(C)C3)cn2)c(C)cc1C(N)=O` (stereo partly drawn) [2,5-dimethyl-N-{8-[5-({[(3S)-1-methylpyrrolidin-3-yl]amino}carbonyl)pyridin-2-yl]-8-azabicyclo[3.2.1]oct-3-endo-yl}benzene-1,4-dicarboxamide] here?
**A.** < 500 nM

**Q.** With `Cc1cc(C(=O)N[C@H]2C[C@H]3CC[C@@H](C2)N3c2ccc(C(=O)NC3CCN(C(C)C)CC3)cn2)c(C)cc1C(N)=O` [2,5-dimethy˜-N-{8-[5-({[1-(1 methylethyl)piperidin-4-yl]amino}carbonyl)pyridin-2-yl]-8-azabicyclo[3.2.1]oct-3-endo-yl}benzene-1,4-dicarboxamide] as the molecule, how does the IC50 read?
**A.** 500 to 999 nM

**Q.** For `Cc1cc(C(N)=O)cc(C)c1C(=O)N[C@H]1C[C@H]2CC[C@@H](C1)N2c1ccc(C(=O)NCc2ccccc2)cn1` [2,6-dimethyl-N1-[8-(5-{[(phenylmethyl)amino]carbonyl}pyridin-2-yl)-8-azabicyclo[3.2.1]oct-3-endo-yl]benzene-1,4-dicarboxamide], which IC50 is on record?
**A.** 500 to 999 nM

**Q.** With `CC(=O)Nc1cc(C(=O)N[C@H]2C[C@H]3CC[C@@H](C2)N3c2ccc(C(N)=O)cn2)ccc1C(N)=O` [2-(acetylamino)-N4-{8-[5-(aminocarbonyl)pyridin-2-yl]-8-azabicyclo[3.2.1]oct-3-endo-yl}benzene-1,4-dicarboxamide] as the molecule, how does the IC50 read?
**A.** 1000 to 2000 nM

**Q.** For `CCCCNc1cc(C(=O)N[C@H]2C[C@H]3CC[C@@H](C2)N3c2ccc(C(=O)C3CC3)cn2)ccc1C(N)=O` [2-(butylamino)-N4-{8-[5-(cyclopropylcarbonyl)pyridin-2-yl]-8-azabicyclo[3.2.1]oct-3-endo-yl}benzene-1,4-dicarboxamide], which IC50 is on record?
**A.** < 500 nM

**Q.** With `C[C@H](NC(=O)c1ccc(N2C3CCC2CC(NC(=O)c2ccc(C(N)=O)c(NC4CCC4)c2)C3)nc1)c1ccc(N2CCN(C)CC2)cc1` (stereo partly drawn) [2-(cyclobutylamino)-N4-(8-{5-[({(1S) 1-[4-(4-methylpiperazin-1-yl)phenyl]ethyl}amino)carbonyl]pyridin-2-yl}-8-azabicyclo[3.2.1]oct-3-endo-yl)benzene-1,4-dicarboxamide] as the molecule, how does the IC50 read?
**A.** < 500 nM

**Q.** For `C[C@H](NC(=O)c1ccc(N2C3CCC2CC(NC(=O)c2ccc(C(N)=O)c(OC4CCC4)c2)C3)nc1)c1ccc(N2CCN(C)CC2)cc1` (stereo partly drawn) [2-(cyclobutyloxy)-N4-(8-{5-[({(1S)-1-[4-(4-methylpiperazin-1-yl)phenyl]ethyl}amino)carbonyl]pyridin-2-yl}-8-azabicyclo[3.2.1]oct-3-endo-yl)benzene-1,4-dicarboxamide], which IC50 is on record?
**A.** 500 to 999 nM

**Q.** With `COc1cc(C(=O)NC2CC3CCC(C2)N3c2ccc(C(=O)N[C@@H](C)c3ccc(N4CCN(C)CC4)cc3)cn2)ccc1C(N)=O` (stereo partly drawn) [2-(methyloxy)-N4-(8-{5-[({(1S)-1-[4-(4-methylpiperazin-1-yl)phenyl]ethyl}amino)carbonyl]pyridin-2-yl}-8-azabicyclo[3.2.1]oct-3-endo-yl)benzene-1,4-dicarboxamide] as the molecule, how does the IC50 read?
**A.** < 500 nM

**Q.** `CCC(CC)Nc1cc(C(=O)NC2CC3CCC(C2)N3c2ccc(C(=O)N[C@@H]3CCNC3)cn2)ccc1C(N)=O` (stereo partly drawn) [2-[(1-ethylpropyl)amino]-N4-[8-(5-{[(3R)-pyrrolidin-3-ylamino]carbonyl}pyridin-2-yl)-8-azabicyclo[3.2.1]oct-3-endo-yl]benzene-1,4-dicarboxamide] was tested. Which IC50 did it give?
**A.** < 500 nM

**Q.** For `CCC(CC)Nc1cc(C(=O)NC2CC3CCC(C2)N3c2ccc(C(=O)N[C@H]3CCCNC3)cn2)ccc1C(N)=O` (stereo partly drawn) [2-[(1-ethylpropyl)amino]-N4-[8-(5-{[(3S)-piperidin-3-ylamino]carbonyl}pyridin-2-yl)-8-azabicyclo[3.2.1]oct-3-endo-yl]benzene-1,4-dicarboxamide], which IC50 is on record?
**A.** < 500 nM
